Series [1] deals with Rattus norvegicus. Briefly: Antidiabetic activity in Zucker fa/fa rat assessed as reduction in glucose level at 0.3 mg/kg pretreated 2 hrs before glucose challenge measured after 40 mins by oral glucose tolerance test. Format: functional. Set-up: scale not given: the % may be the effect or the level left.
Series [2] is described as follows: Permeability coefficient by PAMPA. It is filed as ADME.
The test system of series [3] is Rattus norvegicus. Briefly: Antidiabetic activity in Zucker fa/fa rat assessed as increase in glucose infusion rate at 20 mg/kg daily once for 7 days by euglycemic hyperinsulinemic clamp. Also on record: dose 20 mg/kg. It is filed as functional, organism-based.
Series [4] can be described thus: Distribution coefficient, log D at pH 7.4. Format: physicochemical. Particulars: octanol/water.
For series [5], the system named is Phospholipidosis. Briefly: In vitro phospholipidosis at <20uM. Format: ADME.
Series [6] has as its system Mus musculus. Put plainly: Antidiabetic activity in db/db mouse assessed as reduction in fasting glucose level at 10 mg/kg. Format: functional, organism-based. Set-up: dose 10 mg/kg.
The subject of series [7] is Mus musculus. Put plainly: Antidiabetic activity in db/db mouse assessed as reduction in glucose AUC at 10 mg/kg by oral glucose tolerance test relative to control. It is filed as functional. Also on record: scale not given: the % may be the effect or the level left.
The species entered for series [8] is Rattus norvegicus. Put plainly: Renal clearance in rat as % of total clearance. Format: ADME, organism-based, Kidney. To be noted: in vivo.
The subject of series [9] is Rattus norvegicus. Put plainly: Antidiabetic activity in Zucker fa/fa rat assessed as reduction in hepatic glucose production at 20 mg/kg daily once for 7 days by euglycemic hyperinsulinemic clamp. It is filed as functional.
The test system of series [10] is Cynomolgus monkey. Briefly: Inhibition of DPP4 in cynomolgus monkey plasma assessed as remaining activity at 3 mg/kg, po after 24 hrs relative to control. Format: functional, Macaca fascicularis.
Series [11] can be described thus: Oral bioavailability in cynomolgus monkey at 3 mg/kg. To be noted: in vivo. Format: ADME, organism-based, Macaca fascicularis.
In series [12] the test system is Rhesus monkey. Briefly: Renal clearance in monkey as % of total clearance. It is filed as ADME, organism-based, Macaca mulatta, Kidney. To be noted: in vivo.
Series [13] is described as follows: Volume of distribution at steady state in cynomolgus monkey at 1 mg/kg, iv. Format: ADME, organism-based, Macaca fascicularis. Set-up: dose 1 mg/kg, route intravenous. Particulars: in vivo, read-out: Vdss.
Series [14] in a line: Clearance in Wistar rat at 1 mg/kg, iv. Format: ADME, organism-based. Particulars: in vivo. Set-up: dose 1 mg/kg, route intravenous.
Series [15] can be described thus: Oral bioavailability in Wistar rat at 3 mg/kg. To be noted: in vivo. Format: ADME, organism-based.
The target in series [16] is T1, hERG (KCNH2) (Homo sapiens, UniProt Q12809). Briefly: Inhibition of human ERG by patch clamp assay.
A short description of series [17]: Half life in cynomolgus monkey at 1 mg/kg, iv. Set-up: dose 1 mg/kg, route intravenous. Format: ADME, organism-based, Macaca fascicularis. To be noted: in vivo.
In series [18] the test system is Cynomolgus monkey. Put plainly: Inhibition of DPP4 in cynomolgus monkey plasma assessed as remaining activity at 3 mg/kg, po after 48 hrs relative to control. It is filed as functional, Macaca fascicularis.
The nature of series [19]: Volume of distribution at steady state in Wistar rat at 1 mg/kg, iv. Format: ADME, organism-based. Also on record: dose 1 mg/kg, route intravenous. Particulars: in vivo, read-out: Vdss.
The species named for series [20] is Canis familiaris. Briefly: Renal clearance in dog as % of total clearance. Format: ADME, organism-based, Canis lupus familiaris, Kidney. Particulars: in vivo.
Series [21] can be described thus: Clearance in cynomolgus monkey at 1 mg/kg, iv. It is filed as ADME, organism-based, Macaca fascicularis. Set-up: dose 1 mg/kg, route intravenous. Particulars: in vivo.
Series [22] is described as follows: Half life in Wistar rat at 1 mg/kg, iv. It is filed as ADME, organism-based. Also on record: dose 1 mg/kg, route intravenous. Particulars: in vivo.
Series [23] has as its target T1, hERG (KCNH2). Put plainly: Inhibition of human ERG at 10 uM by patch clamp assay.

Results on 15 compounds are retold here after ChEMBL document CHEMBL1158517, “Discovery of carmegliptin: a potent and long-acting dipeptidyl peptidase IV inhibitor for the treatment of type 2 diabetes” (Bioorg Med Chem Lett, 2010).

The source made the active and inactive calls. The rule behind the calls is not given here.

T1 sequence (Q12809 whole entry): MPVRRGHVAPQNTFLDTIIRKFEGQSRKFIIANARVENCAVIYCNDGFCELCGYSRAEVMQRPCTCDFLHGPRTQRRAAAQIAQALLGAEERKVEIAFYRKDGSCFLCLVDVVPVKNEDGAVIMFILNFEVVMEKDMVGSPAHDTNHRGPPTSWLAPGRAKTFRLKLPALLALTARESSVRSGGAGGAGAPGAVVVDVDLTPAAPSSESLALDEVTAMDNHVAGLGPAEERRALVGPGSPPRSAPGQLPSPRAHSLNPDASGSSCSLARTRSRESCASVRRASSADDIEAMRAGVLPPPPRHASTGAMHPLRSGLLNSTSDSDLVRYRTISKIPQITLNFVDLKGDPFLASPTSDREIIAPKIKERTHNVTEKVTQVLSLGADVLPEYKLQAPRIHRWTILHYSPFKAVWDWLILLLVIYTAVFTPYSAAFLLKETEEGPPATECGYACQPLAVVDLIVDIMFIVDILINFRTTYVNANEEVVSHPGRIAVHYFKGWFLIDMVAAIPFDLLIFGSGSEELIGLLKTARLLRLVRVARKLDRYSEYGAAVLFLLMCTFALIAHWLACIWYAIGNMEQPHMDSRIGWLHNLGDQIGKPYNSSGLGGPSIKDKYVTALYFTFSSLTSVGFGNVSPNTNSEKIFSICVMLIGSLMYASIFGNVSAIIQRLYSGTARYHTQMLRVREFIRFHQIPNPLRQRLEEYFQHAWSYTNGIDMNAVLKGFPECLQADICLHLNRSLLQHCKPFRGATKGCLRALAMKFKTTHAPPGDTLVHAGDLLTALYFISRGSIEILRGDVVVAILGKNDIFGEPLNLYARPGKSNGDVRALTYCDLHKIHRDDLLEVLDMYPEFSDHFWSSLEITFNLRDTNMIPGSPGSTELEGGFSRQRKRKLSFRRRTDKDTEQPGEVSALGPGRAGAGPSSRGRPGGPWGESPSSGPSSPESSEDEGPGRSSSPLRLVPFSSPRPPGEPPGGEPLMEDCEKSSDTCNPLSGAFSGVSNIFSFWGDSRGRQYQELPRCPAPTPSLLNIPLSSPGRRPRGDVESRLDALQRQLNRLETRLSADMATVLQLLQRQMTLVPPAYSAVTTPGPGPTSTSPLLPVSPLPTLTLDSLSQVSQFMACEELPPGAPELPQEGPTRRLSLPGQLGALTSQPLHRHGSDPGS

As to `COc1cc2c(cc1OC)[C@@H]1C[C@H](N)[C@@H](N3C[C@@H](C)CC3=O)CN1CC2`, the figures for the Activity in series [1] and in [7] were 79% and 50%, respectively. For the same compound, the permeability in series [2] is 0.6 ×10⁻⁶ cm/s. For the same compound, the outcome in series [3] and in [6] was Active. The logD in series [4] is -0.1. The Phospholipidosis result in series [5] is “Not Active”.

On to `COc1cc2c(cc1OC)C1CC(N)C(N3CCCOC3=O)CN1CC2` (stereo not given), for which the permeability in series [2] was 0.1 ×10⁻⁶ cm/s. The compound also registered a log distribution coefficient (logD) in [4] of -0.9.

`COc1cc2c(cc1OC)C1CC(N)C(N3CCCC3=O)CN1CC2` (stereo not given): the permeability in series [2] came to 0.6 ×10⁻⁶ cm/s. The pH-dependent lipophilicity (logD) in series [4] is -0.5.

On to `COc1cc2c(cc1OC)C1CC(N)C(N3CCCC[S+]3[O-])CN1CC2` (stereo not given), for which the Activity in series [1] amounted to 18%. Besides, the permeability in [2] was found to be 0.7 ×10⁻⁶ cm/s. Moreover, the log distribution coefficient (logD) in series [4] was -0.4.

Compound `COc1cc2c(cc1OC)C1CC(N)C(N3CCOC3=O)CN1CC2` (stereo not given) had a permeability in series [2] of 0 ×10⁻⁶ cm/s. In addition, in [4], the logD was -0.8.

Consider `COc1cc2c(cc1OC)[C@@H]1C[C@H](N)[C@@H](N3C[C@@H](CF)CC3=O)CN1CC2` [CARMEGLIPTIN], for which the Activity in [1] turned out to be 66%; in series [9], 1.3 mg/min/kg; in [10], 40%; in series [18], 60%; in series [7] it was 30%. The Fraction cleared renally in series [8], in series [12] and in [20] was 30% in each case. Further, the permeability in series [2] came out at 0.13 ×10⁻⁶ cm/s. The bioavailability came out at 33% in series [11] and 28% in [15]. The Vd in series [13] amounted to 3.3 L/kg; in series [19], 6.3 L/kg. In addition, the result in series [3] and in series [6] was Active. Also, the clearance was 24 mL/min/kg in series [14] and 8.5 mL/min/kg in series [21]. Besides, the logD in series [4] is -0.5. Besides, in [16], the IC20 was 21 µM. Also, the Phospholipidosis result in [5] is on record as “Not Active”. In addition, the half-life in series [17] is 6.8 h; in series [22], 5.3 h.

Regarding `COc1cc2c(cc1OC)C1CC(N)C(N3CCCCC3=O)CN1CC2` (stereo not given), in series [1], the Activity was found to be 33%. In series [2], the permeability stood at 0.2 ×10⁻⁶ cm/s. The compound further yielded a pH-dependent lipophilicity (logD) in [4] of -0.5.

Take `COc1cc2c(cc1OC)C1CC(N)C(N3CCC(C)CC3=O)CN1CC2` (stereo not given): in series [1], the Activity was 16%. The compound also displayed a permeability in series [2] of 0.5 ×10⁻⁶ cm/s. For the same compound, in [4], the logD was -0.2.

In the case of `COc1cc2c(cc1OC)[C@@H]1C[C@H](N)[C@@H](N3C[C@H](CF)CC3=O)CN1CC2`, the Activity in series [1] stood at 77%; in [7], 20%. The compound also showed a permeability in [2] of 0.4 ×10⁻⁶ cm/s. Moreover, the logD in series [4] was -0.4. Also, the Phospholipidosis result in series [5] is given as “Not Active”.

Turning to `CCC1CC(=O)N(C2CN3CCc4cc(OC)c(OC)cc4C3CC2N)C1` (stereo not given), the Activity in [1] was determined as 31%. The compound also registered a permeability in [2] of 0.9 ×10⁻⁶ cm/s. This compound showed an inhibition at 10 µM in series [23] of 45%. Besides, in series [4], the logD was -0.1.

For the compound `COc1cc2c(cc1OC)C1CC(N)C(N3CC(C)CCC3=O)CN1CC2` (stereo not given), in series [1], the Activity turned out to be 34%. Further, the permeability in series [2] was determined as 1.1 ×10⁻⁶ cm/s. The compound also showed a logD in [4] of 0. In addition, in series [5], the Phospholipidosis result is listed as “Not Active”.

With `COc1cc2c(cc1OC)[C@@H]1C[C@H](N)[C@@H](N3CCCCC3=O)CN1CC2`, the Activity in series [1] worked out at 56%. The permeability in series [2] was found to be 0.2 ×10⁻⁶ cm/s. Besides, the bioavailability in series [11] was 64%; in series [15] it was 47%. In series [23], the inhibition at 10 µM turned out to be 45%. Also, the Vd in series [13] stood at 8.6 L/kg; in series [19], 5.9 L/kg. Further, the clearance in series [14] was 25 mL/min/kg; in [21], 18.7 mL/min/kg. In series [4], the logD is -0.5. The Phospholipidosis result in series [5] is recorded as “Not Active”. Also, the values for the half-life in series [17] and in [22] were 9.4 h and 4.5 h, respectively.

In the case of `COc1cc2c(cc1OC)[C@@H]1C[C@H](N)[C@@H](N3C[C@H](C)CC3=O)CN1CC2`, the Activity in series [1] turned out to be 46%. Also, the permeability in [2] worked out at 0.8 ×10⁻⁶ cm/s. Besides, the logD in series [4] was -0.3.

Regarding `COc1cc2c(cc1OC)C1CC(N)C(N3CCC[S+]3[O-])CN1CC2` (stereo not given), the permeability in series [2] was determined as 1.2 ×10⁻⁶ cm/s. This compound returned a pH-dependent lipophilicity (logD) in [4] of -0.7.

As for `COc1cc2c(cc1OC)C1CC(N)C(N3CC(C)CC3=O)CN1CC2` (stereo not given), in series [1], the Activity came out at 42%. In addition, the permeability in [2] amounted to 0.2 ×10⁻⁶ cm/s. For the same compound, the inhibition at 10 µM in [23] stood at 9%. For the same compound, the pH-dependent lipophilicity (logD) in [4] was -0.2. In [5], the Phospholipidosis entry is given as “Not Active”.
